The record followed here is patent US11066396B2 (priority 2016, dated 2021).

The target of one test is HDAC5 (Homo sapiens (Human), UniProt Q9UQL6). Conditions: read-out: HDAC5 IC50.
Another test has as its target HDAC1 (Homo sapiens (Human), UniProt Q13547). Conditions: read-out: HDAC1 IC50.
In the next test the target is HDAC8 (Homo sapiens (Human), UniProt Q9BY41). Conditions: read-out: HDAC8 IC50.
Chain of HDAC8 (Q9BY41 whole entry): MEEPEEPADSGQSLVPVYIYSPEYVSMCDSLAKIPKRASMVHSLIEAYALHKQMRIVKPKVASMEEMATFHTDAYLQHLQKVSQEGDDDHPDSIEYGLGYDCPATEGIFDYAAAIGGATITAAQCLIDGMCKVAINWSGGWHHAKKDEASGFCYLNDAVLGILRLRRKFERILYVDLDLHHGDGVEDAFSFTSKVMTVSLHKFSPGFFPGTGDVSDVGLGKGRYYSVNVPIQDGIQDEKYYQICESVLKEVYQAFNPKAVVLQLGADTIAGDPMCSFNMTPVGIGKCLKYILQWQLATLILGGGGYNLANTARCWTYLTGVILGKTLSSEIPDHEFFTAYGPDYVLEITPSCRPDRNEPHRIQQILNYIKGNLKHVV

Chain of HDAC5 (Q9UQL6 656-1122): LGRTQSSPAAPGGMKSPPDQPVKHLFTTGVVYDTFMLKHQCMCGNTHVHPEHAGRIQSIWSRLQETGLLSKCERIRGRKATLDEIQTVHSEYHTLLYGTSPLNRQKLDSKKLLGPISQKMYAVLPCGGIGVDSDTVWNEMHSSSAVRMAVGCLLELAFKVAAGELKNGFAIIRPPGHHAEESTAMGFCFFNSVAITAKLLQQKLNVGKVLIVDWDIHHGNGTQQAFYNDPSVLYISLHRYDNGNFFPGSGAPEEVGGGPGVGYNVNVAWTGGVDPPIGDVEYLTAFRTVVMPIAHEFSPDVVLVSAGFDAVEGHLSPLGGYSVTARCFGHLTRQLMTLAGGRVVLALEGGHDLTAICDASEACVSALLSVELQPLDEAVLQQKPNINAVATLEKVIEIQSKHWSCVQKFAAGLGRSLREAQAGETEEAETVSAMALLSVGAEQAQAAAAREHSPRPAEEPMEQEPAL
Chain of HDAC1 (Q13547 whole entry): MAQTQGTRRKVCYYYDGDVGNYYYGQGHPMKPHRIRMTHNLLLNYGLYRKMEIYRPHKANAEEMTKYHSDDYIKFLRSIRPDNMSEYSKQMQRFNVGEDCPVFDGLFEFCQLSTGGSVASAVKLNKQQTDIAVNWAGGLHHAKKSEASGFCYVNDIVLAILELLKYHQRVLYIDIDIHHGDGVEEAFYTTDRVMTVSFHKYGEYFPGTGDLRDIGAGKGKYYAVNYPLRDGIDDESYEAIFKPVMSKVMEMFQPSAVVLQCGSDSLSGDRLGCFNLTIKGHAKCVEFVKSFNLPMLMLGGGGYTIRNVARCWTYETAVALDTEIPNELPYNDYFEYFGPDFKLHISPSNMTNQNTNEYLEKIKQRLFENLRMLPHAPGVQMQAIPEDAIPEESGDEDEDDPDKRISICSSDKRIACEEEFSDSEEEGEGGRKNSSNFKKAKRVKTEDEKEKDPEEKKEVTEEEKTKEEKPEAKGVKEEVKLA

In the case of `O=C1CCC(c2ccccc2Cl)N1c1cc(F)c(-c2noc(C(F)(F)F)n2)cc1F` (racemic) [Example 120, 5-(2-chlorophenyl)-1-(2,5-difluoro-4-(5-(trifluoromethyl)-1,2,4-oxadiazol-3-yl)phenyl)pyrrolidin-2-one], the IC50 at HDAC5 is 79 nM.
Take `O=C(NC(Cc1ccc(-c2noc(C(F)(F)F)n2)cn1)c1cccc(C(F)(F)F)c1)C1CCS(=O)(=O)CC1` (racemic) [Example 477, 1,1-dioxo-N-(2-{5-[5-(trifluoromethyl)-1,2,4-oxadiazol-3-yl]pyridin-2-yl}-1-[3-(trifluoromethyl)phenyl]ethyl)-llambda~6~-thiane-4-carboxamide]: the IC50 at HDAC1 came out at 670 nM; at HDAC5, 620 nM.
Taken in the same sequence, the figures for `CC(C)(C)CC(=O)NC(Cc1ccc(-c2noc(C(F)(F)F)n2)cn1)c1cccc(C(F)(F)F)c1` (racemic) [Example 481, 3,3-dimethyl-N-(2-{5-[5-(trifluoromethyl)-1,2,4-oxadiazol-3-yl]pyridin-2-yl}-1-[3-(trifluoromethyl)phenyl]ethyl)butanamide] were 1100 nM and 710 nM.
As for `O=C(NC(Cc1ccc(-c2noc(C(F)(F)F)n2)cn1)c1cccc(C(F)(F)F)c1)c1ccccc1` (racemic) [Example 486, N-(2-{5-[5-(trifluoromethyl)-1,2,4-oxadiazol-3-yl]pyridin-2-yl}-1-[3-(trifluoromethyl)phenyl]ethyl)benzamide], the IC50 at HDAC1 worked out at 690 nM; on HDAC5 it was 670 nM.
As for `FC(F)(F)c1nc(-c2ccc(COc3ccc4ccccc4n3)nc2)no1` [Example 461, 2-({5-[5-(trifluoromethyl)-1,2,4-oxadiazol-3-yl]pyridin-2-yl}methoxy)quinoline], the IC50 at HDAC1 stood at 500 nM; on HDAC8, 21000 nM.
Take `CC(C)(C)OC(=O)C1COCC(=O)N1c1ccc(-c2noc(C(F)(F)F)n2)c(F)c1` (stereo not drawn) [Example 468, tert-butyl 4-{3-fluoro-4-[5-(trifluoromethyl)-1,2,4-oxadiazol-3-yl]phenyl}-5-oxomorpholine-3-carboxylate]: the IC50 worked out at 940 nM at HDAC1 and 5500 nM at HDAC8.
Taken in the same sequence, the figures for `O=C(C1CCS(=O)(=O)CC1)N(Cc1cnc(-c2noc(C(F)(F)F)n2)cn1)c1cccc(C(F)(F)F)c1` [Example 470, N-({5-[5-(trifluoromethyl)-1,2,4-oxadiazol-3-yl]pyrazin-2-yl}methyl)-N-[3-(trifluoromethyl)phenyl]tetrahydro-2H-thiopyran-4-carboxamide 1,1-dioxide] were 1100 nM and 10000 nM.
Taken in the same sequence, the figures for `COC(=O)N1CC(=O)N(Cc2ccc(-c3noc(C(F)(F)F)n3)cn2)c2ccccc21` [Example 472, methyl 3-oxo-4-({5-[5-(trifluoromethyl)-1,2,4-oxadiazol-3-yl]pyridin-2-yl}methyl)-3,4-dihydroquinoxaline-1(2H)-carboxylate] were 320 nM and 1400 nM.
Taken in the same sequence, the figures for `FC(F)(F)c1nc(-c2cnc(COc3ccc4ccccc4n3)nc2)no1` [Example 473, 2-({5-[5-(trifluoromethyl)-1,2,4-oxadiazol-3-yl]pyrimidin-2-yl}methoxy)quinoline] were 160 nM and 45000 nM.
As for `O=c1ccc2ccccc2n1Cc1ncc(-c2noc(C(F)(F)F)n2)cn1` [Example 474, 1-({5-[5-(trifluoromethyl)-1,2,4-oxadiazol-3-yl]pyrimidin-2-yl}methyl)quinolin-2(1H)-one], the IC50 at HDAC1 came out at 220 nM; at HDAC8, 6000 nM.
With `O=C1CCc2cccc(C(F)(F)F)c2N1Cc1ccc(-c2noc(C(F)(F)F)n2)cn1` [Example 475, 8-(trifluoromethyl)-1-({5-[5-(trifluoromethyl)-1,2,4-oxadiazol-3-yl]pyridin-2-yl}methyl)-3,4-dihydroquinolin-2(1H)-one], the IC50 at HDAC1 was found to be 880 nM; at HDAC8 it was 5600 nM.
